# Experimental data reported in patent US20240140941A1, “DERIVATIVE OF 2,5-DIKETOPIPERAZINE COMPOUND, AND PREPARATION METHOD THEREFOR, PHARMACEUTICAL COMPOSITION THEREOF AND USE THEREOF” (DALIAN WZ PROBIOTICS AD HEALTH CO., LTD, priority 2020, published 2024).
# Where a name gives a salt, the structure may show the parent alone. Read-outs that look alike come from different tables or passages of the source.
# Experiments:
# [1] = tested on: BxPC-3; experiment: Inhibition test on cell proliferation (MTT), BxPC-3; assay type: cell-based, human; settings: 72 hours of drug treatment, MTT, read-out: IC50 (nM) BxPC-3
# In short: (§1)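 Cells plated at 2000-6000 per well, allowed to adhere for 24 h, then exposed to serially diluted compound for 72 h at 37 °C, 5% CO2. Viability read by MTT reduction, with formazan dissolved in DMSO and absorbance taken at 490 nm. Inhibition rate calculated relative to untreated and zero-setting wells.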
# [2] = Compound solubility experiment, Method 2: about 2 mg salt in 0.2 mL ultrapure water, dissolution observed; assay type: physicochemical; settings: 37 °C, thermodynamic from solid, salts, 37±1° C., shaken 24 hours
# Description: Method 2: A 0.5 mL brown EP tube was taken, about 2 mg of hydrochloride of derivatives of 2,5-diketopiperazine compounds was weighed respectively, and 0.2 mL of ultrapure water was added thereto. The mixture was vortexed, put into an incubation shaker, maintained at a temperature of (37±1° C.), shaken at 100 r/min for 24 hours, so as to achieve full dissolution equilibrium. The dissolution of the mixture was observed.
# [3] = tested on: HCC-LM3; experiment: Inhibition test on cell proliferation (MTT), HCC-LM3; assay type: cell-based, human; settings: 72 hours of drug treatment, MTT, read-out: IC50 (nM) HCC-LM3
# In short: as §1
# [4] = tested on: NCI-H460; experiment: Inhibition test on cell proliferation (MTT), NCI-H460; assay type: cell-based, human; settings: 72 hours of drug treatment, MTT, read-out: IC50 (nM) NCI-H460
# In short: as §1
# [5] = tested on: HT-29; experiment: Inhibition test on cell proliferation (MTT), HT-29; assay type: cell-based, human; settings: 72 hours of drug treatment
# In short: as §1
# [6] = Compound solubility experiment, Method 1: equilibrium solubility in pure water, LC-MS; assay type: physicochemical; settings: ultrapure water, 37±1° C., shaken 24 hours
# Description: Method 1: A 1.5 mL brown EP tube was taken, about 1 mg of compound was weighed respectively, and 1 mL of ultrapure water was added thereto. The mixture was vortexed, and sonicated until the compound was no longer dissolved (the solution was turbid or had suspended particles). The mixture was put into an incubation shaker, maintained at a temperature of (37±1° C.), shaken at 100 r/min for 24 hours, so as to achieve full dissolution equilibrium. After 24 hours, the supernatant was quickly filtered through a 0.45 μm microporous membrane, and the initial filtrate was discarded. 200 μL of the renewed filtrate was taken and diluted with 200 μL of methanol. The assay was repeated at least three times. According to the chromatographic conditions, the sample was injected by LC-MS, and the peak area was measured and the equilibrium solubility of each 2,5-diketopiperazine derivative in pure water was calculated.
# [7] = tested on: NCI-H460 cell line; experiment: Cell apoptosis experiment (Annexin V/PI double staining, flow cytometer), NCI-H460; assay type: cell-based, human; settings: for Proportion of late apoptotic cells / Proportion of early apoptotic cells: NCI-H460; for Proportion of late apoptotic cells: blank control 0.54%; for Proportion of early apoptotic cells: blank control 1.84%; for number of apoptosis: NCI-H460, in words
# Description: (§2) 1. Cell collection: The cell culture dish was taken out, the culture medium was washed with PBS, digested with EDTA-free trypsin, collected into a centrifuge tube. The number of cells per sample was about 1×10^6/mL, and the centrifuge tube was centrifuged at 800 r/min for 3 min, and the culture medium was discarded.
# (§3) 2. The residue was washed twice with frozen PBS, centrifuged at 800 r/min for 3 min each time, and the supernatant was discarded.
# (§4) 3. Blank group, single-stained group and double-stained group were set, and 100 μL of binding buffer was added thereto. 5 μL of FITC-annexin V and 5 μL of PI were chosen according to different groups, mixed gently, incubated at room temperature in the dark for 15 min, then 400 μL of binding buffer was added thereto, and the cells were gently mixed.
# (§5) 4. After filtering the cell suspension with a 300-mesh nylon membrane, the cell suspension was detected by a flow cytometer.
# [8] = tested on: β-tubulin; experiment: Immunofluorescence experiment, BxPC-3 cell line; assay type: cell-based, human; settings: for β-tubulin fluorescence value: BxPC-3 cell line, control 29873 ± 4013; for number of tubulin distributed radially: BxPC-3 cells, in words
# Description: (§6) 1. Cell membrane rupture: After the cover slip was shaken to slight dryness, a circle was drawn using a histochemical pen at the position where the cells were evenly distributed in the middle of the cover slip (to prevent the antibody from flowing away). 50 to 100 μL of membrane rupture working solution was added, and incubated at room temperature for 20 min, washed 3 times with PBS, 5 min each time.
# (§7) 2. Serum blocking: BSA was added dropwise in the circle to evenly cover the tissue and block at room temperature for 30 min. (The primary antibody was from goat and blocked with 10% normal rabbit serum, and the primary antibody from other sources was blocked with 3% BSA)
# (§8) 3. Adding the primary antibody: The blocking solution was shaken off gently, and the primary antibody was added dropwise in the cell well plate (prepared in a certain proportion using PBS), and the cell culture plate was placed flat in a humid box and incubated overnight at 4° C.
# (§9) 4. Adding secondary antibody: PBS was added to the cell culture plate, placed on a decolorizing shaker, shaken and washed for 3 times, 5 min each time. After shaking to slight dryness, a secondary antibody corresponding to the species of the primary antibody in the histochemical kit was added dropwise in the circle to cover the tissue, and incubated at room temperature for 50 min.
# (§10) 5. DAPI restaining nucleus: The cover slip was placed in PBS (pH 7.4), shaken and washed 3 times on the decolorizing shaker, 5 min each time. After the cover slip was shaken to slight dryness, DAPI staining solution was added dropwise in the circle, and incubated at room temperature for 10 min in the dark.
# (§11) 6. Sealing the cover slip: The cover slip was placed in PBS (pH 7.4), shaken and washed 3 times on the decolorizing shaker, 5 min each time. After the cover slip was shaken to slight dryness, the cover slip was sealed with antifade mounting medium.
# (§12) 7. Microscopic examination and photographing: The cover slip was observed under a fluorescent microscope and images were collected.
# [9] = tested on: BxPC-3 cell line; experiment: Cell apoptosis experiment (Annexin V/PI double staining, flow cytometer), BxPC-3; assay type: cell-based, human; settings: for Proportion of late apoptotic cells / Proportion of early apoptotic cells: BxPC-3; for Proportion of late apoptotic cells: blank control 0.94%; for Proportion of early apoptotic cells: blank control 1.11%; for number of apoptosis: BxPC-3, in words
# Description: as §2, §3, §4, §5
# [10] = tested on: β-tubulin; experiment: Immunofluorescence experiment, NCI-H460 cell line; assay type: cell-based, human; settings: for β-tubulin fluorescence value: NCI-H460 cell line, control 20330 ± 1233; for number of tubulin distributed radially: NCI-H460 cells, in words
# Description: as §6, §7, §8, §9, §10, §11, §12
SMILES,IC50 ([1]; hydrochloride) [nM],solubility at 24 h [2] [µg/mL],IC50 ([3]; hydrochloride) [nM],IC50 ([4]; hydrochloride) [nM],IC50 ([5]; hydrochloride) [nM],other results
"CC(C)c1c(/C=c2\[nH]c(=O)/c(=C/c3cccc(Oc4ccc(F)cc4)c3)[nH]c2=O)ncn1CCCN1CCOCC1 [PLN-2-2-1, hydrochloride]",1.21 ± 0.21,> 10000,1.76 ± 0.3,2.8 ± 1.15,1.5 ± 0.58,–
"O=c1[nH]/c(=C\c2ncn(CCCN3CCOCC3)c2C2CC2)c(=O)[nH]/c1=C\c1cccc(Oc2ccc(F)cc2)c1 [PLN-2-4-1, (3Z,6Z)-3-(3-(p-Fluorophenoxy)phenyl)methylene-6-((5-cyclopropyl-1-(3-morpholinyl)propylimidazol-4-yl)methylene)piperazine-2,5-dione, hydrochloride]",–,> 10000,–,23.8 ± 1.36,–,–
"CC(C)c1c(/C=c2\[nH]c(=O)/c(=C/c3cc(F)cc(F)c3)[nH]c2=O)ncn1CCCN1CCOCC1 [PLN-2-62-1, (3Z,6Z)-3-(3,5-Difluorophenyl)methylene-6-((5-isopropyl-1-(3-morpholinyl)propylimidazol-4-yl)methylene)piperazine-2,5-dione, hydrochloride]",3.75 ± 0.06,> 10000,5.32 ± 1.38,6.87 ± 0.47,3.79 ± 0.04,–
"CC(C)c1c(/C=c2\[nH]c(=O)/c(=C/c3ccccc3)[nH]c2=O)ncn1CCCN1CCOCC1 [PLN-2-5-1, (3Z,6Z)-3-Benzylidene-6-((5-isopropyl-1-(3-morpholinyl)propylimidazol-4-yl)methylene)piperazine-2,5-dione, hydrochloride]",9.73 ± 0.3,> 10000,12.4 ± 2.68,17.8 ± 0.55,11.8 ± 5.52,–
"CC(C)c1c(/C=c2\[nH]c(=O)/c(=C/c3ccc(F)c(F)c3)[nH]c2=O)ncn1CCCN1CCOCC1 [PLN-2-63-1, hydrochloride]",50.1 ± 7.79,> 10000,66.6 ± 4.98,94.7 ± 9.48,–,–
"CC(C)c1c(/C=c2\[nH]c(=O)/c(=C/c3cc(F)ccc3F)[nH]c2=O)ncn1CCCN1CCOCC1 [PLN-2-7-1, (3Z,6Z)-3-(2,5-Difluorophenyl)methylene-6-((5-isopropyl-1-(3-morpholinyl)propylimidazol-4-yl)methylene)piperazine-2,5-dione, hydrochloride]",4.83 ± 0.2,> 10000,4 ± 1.5,6.93 ± 4.85,5.61 ± 1.96,–
"CC(C)(C)c1[nH]cnc1/C=c1\[nH]c(=O)/c(=C/c2ccccc2)[nH]c1=O [Plinabulin, reference compound]",–,–,–,–,–,"IC50 ([1]; Homo sapiens, BXPC-3, 72 h): 5.41 ± 0.76 nM; Solubility [6]: <0.25 µg/mL; IC50 ([3]; Homo sapiens, HCCLM3, 72 h): 8.31 ± 0.23 nM; Proportion of late apoptotic cells [7]: 5.18%; Proportion of early apoptotic cells [7]: 1.90%; β-tubulin fluorescence value [8]: 11000; Proportion of late apoptotic cells [9]: 3.85%; Proportion of early apoptotic cells [9]: 1.66%; IC50 ([4]; Homo sapiens, NCI-H460, 72 h): 11.6 ± 0.96 nM; IC50 ([5]; Homo sapiens, HT-29, 72 h): 5.74 ± 0.73 nM; β-tubulin fluorescence value [10]: 8133"
"O=C(c1ccc(F)cc1)c1cccc(/C=c2\[nH]c(=O)/c(=C/c3ncn(CCCN4CCOCC4)c3C3CC3)[nH]c2=O)c1 [PLN-2-3-1, (3Z,6Z)-3-(3-(p-Fluorobenzoyl)phenyl)methylene-6-((5-cyclopropyl-1-(3-morpholinyl)propylimidazol-4-yl)methylene)piperazine-2,5-dione, hydrochloride]",–,> 10000,–,5.6 ± 0.41,–,number of apoptosis [7]: significantly increased; Proportion of late apoptotic cells [7]: 6.76%; Proportion of early apoptotic cells [7]: 3.08%; β-tubulin fluorescence value [8]: 9000; number of tubulin distributed radially [8]: significantly reduced; number of apoptosis [9]: significantly increased; Proportion of late apoptotic cells [9]: 5.83%; Proportion of early apoptotic cells [9]: 2.75%; β-tubulin fluorescence value [10]: 7822; number of tubulin distributed radially [10]: significantly reduced
"CC(C)c1c(/C=c2\[nH]c(=O)/c(=C/c3cccc(C(=O)c4ccc(F)cc4)c3)[nH]c2=O)ncn1CCCN1CCOCC1 [PLN-2-1-1, (3Z,6Z)-3-(3-(p-Fluorobenzoyl)phenyl)methylene-6-((5-isopropyl-1-(3-morpholinyl)propylimidazol-4-yl)methylene)piperazine-2,5-dione, hydrochloride]",1.77 ± 0.03,> 10000,2.04 ± 0.57,2.28 ± 1.24,1.56 ± 0.47,number of apoptosis [7]: significantly increased; Proportion of late apoptotic cells [7]: 9.70%; Proportion of early apoptotic cells [7]: 3.55%; β-tubulin fluorescence value [8]: 9533; number of tubulin distributed radially [8]: significantly reduced; number of apoptosis [9]: significantly increased; Proportion of late apoptotic cells [9]: 6.79%; Proportion of early apoptotic cells [9]: 3.82%; β-tubulin fluorescence value [10]: 5344; number of tubulin distributed radially [10]: significantly reduced
"O=c1[nH]/c(=C\c2ncn(CCCN3CCOCC3)c2C2CC2)c(=O)[nH]/c1=C\c1cccc(F)c1 [PLN-2-10-1, (3Z,6Z)-3-(3-Fluorophenyl)methylene-6-((5-cyclopropyl-1-(3-morpholinyl)propylimidazol-4-yl)methylene)piperazine-2,5-dione, hydrochloride]",12 ± 1.27,> 10000,12 ± 2.67,18.37 ± 0.13,11.1 ± 1.39,–
"CC(C)c1c(/C=c2\[nH]c(=O)/c(=C/c3cccc(F)c3)[nH]c2=O)ncn1CCCN1CCOCC1 [PLN-2-9-1, (3Z,6Z)-3-(3-Fluorophenyl)methylene-6-((5-isopropyl-1-(3-morpholinyl)propylimidazol-4-yl)methylene)piperazine-2,5-dione, hydrochloride]",5.76 ± 1,> 10000,6.99 ± 0.59,8.87 ± 0.05,6.22 ± 1.61,–
